Measured values as given in patent publication US20150336889A1, “INDOLE DERIVATIVES, PHARMACEUTICAL COMPOSITIONS CONTAINING SUCH INDOLES AND THEIR USE AS DNA METHYLATION MODULATORS” (IKERCHEM, S.L., priority 2012, published 2015).

Assays:
Format in all cases: cell-based
BT474 = assay: Cancer cell growth inhibition, BT474; conditions: Homo sapiens, BT-474; Breast, BT474, cell viability, 72 h
Description: (§1) Cell culture-based assays were used to evaluate the ability of compounds of the invention to inhibit cancer cell growth inhibition.
(§2) Cells were obtained from the American Type Culture Collection (ATCC) and European Collection of Cell Cultures (ECACC).
(§3) Cells were thawed in their appropriate media plus supplements (see table below). Cells were passaged at confluence by washing once in HBSS cation-free followed by a 3 minutes incubation with trypsin ([0.5 μg/ml]/EDTA [0.2 μg/ml]) (Gibco-BRL, 15400054) solution in HBSS at 37° C. (except non-adherent cell lines), and transferred to their appropriate media plus supplements. Prior to seeding at defined cell concentration, cells were recovered in medium, centrifuged and taken up in medium, and counted. […]
(§4) Dose-response curves were generated by serial dilutions (1:1) of the compounds. […] Plates were incubated 72 h, and living cell number was determined by AlamarBlue® and Hexosaminidase test. […] AlamarBlue® assay: plates were incubated 72 h and living cell number was determined by AlamarBlue (Biosource DAL1100). After 4 h incubation at 37° C., relative fluorescent intensity, which correlates with the number of living cells, was read in a Cytofluor plate reader (Millipore) at 535/590 nm (Excitation/emission). The hexosaminidase activity was measured according to the following protocol: the media was removed and cells were washed once with PBS. […]

MDA-MB-231 = assay: Cancer cell growth inhibition, MDA-MB-231; conditions: Homo sapiens; Breast, MDA-MB-231, cell viability, 72 h
Description: as §1, §2, §3, §4

T47D = assay: Cancer cell growth inhibition, T47D; conditions: Homo sapiens, Breast, cell viability, 72 h
Description: as §1, §2
(§5) Cells were thawed in their appropriate media plus supplements (see table below). Cells were passaged at confluence by washing once in HBSS cation-free followed by a 3 minutes incubation with trypsin ([0.5 μg/ml]/EDTA [0.2 μg/ml]) (Gibco-BRL, 15400054) solution in HBSS at 37° C. (except non-adherent cell lines), and transferred to their appropriate media plus supplements. Prior to seeding at defined cell concentration, cells were recovered in medium, centrifuged and taken up in medium, and counted.
(§6) Cells were plated at 3000/5000/10000 cells/well in 100 μl media in tissue culture 96 well plates (Cultek). After 24 h, media was supplemented by 100 μl/well of diluted IPDNs at 100 μM.
(§7) The Hexosaminidase assay was used for the adherent cell lines, whereas the AlamarBlue® assay was used for the non-adherent cell lines.
(§8) Dose-response curves were generated by serial dilutions (1:1) of the compounds. […] Reagent blanks, containing media plus colorimetric reagent without cells were run on each plate. Blank values were subtracted from test values and were routinely 5-10% of uninhibited control values. Plates were incubated 72 h, and living cell number was determined by AlamarBlue® and Hexosaminidase test. The advantages of using those assays are that both can be done in the same microwell plate. AlamarBlue® assay: plates were incubated 72 h and living cell number was determined by AlamarBlue (Biosource DAL1100). After 4 h incubation at 37° C., relative fluorescent intensity, which correlates with the number of living cells, was read in a Cytofluor plate reader (Millipore) at 535/590 nm (Excitation/emission). The hexosaminidase activity was measured according to the following protocol: the media was removed and cells were washed once with PBS.
(§9) Data analysis was done by calculating the percentage of cell viability normalized in front of negative control values, which were considered as a 100%. The curve was adjusted using a sigmoidal dose-response (variable slope) equation and EC50 values were obtained from the equation
(§10) where, X is the logarithm of concentration. Y is the response. Bottom is the Y value at the bottom plateau Top is the Y value at the top plateau LogEC50 is the X value when the response is halfway between Bottom and Top. With different kinds of variables, this variable is sometimes called ED50 (effective dose, 50%), or IC50 (inhibitory concentration, 50%, used when the curve goes downhill).

DU-145 = assay: Cancer cell growth inhibition, DU-145; conditions: Homo sapiens; Prostate, DU-145, cell viability, 72 h
Description: as §1, §2, §5, §6, §7
as §8, with “PBS. […]” for “PBS.”

HCT-116 = assay: Cancer cell growth inhibition, HCT-116; conditions: Homo sapiens; Colorectal, HCT-116, cell viability, 72 h
Description: as §1, §2, §5, §6, §7, §8, §9, §10

HT-29 = assay: Cancer cell growth inhibition, HT-29; conditions: Homo sapiens; Colorectal, HT-29, cell viability, 72 h
Description: as §1, §2, §5, §6, §7
as §8, with “PBS. […]” for “PBS.”

SW-480 = assay: Cancer cell growth inhibition, SW-480; conditions: Homo sapiens, SW480; Colorectal, SW-480, cell viability, 72 h
Description: as §1, §2, §3, §4

NCI-H1975 = assay: Cancer cell growth inhibition, NCI-H1975; conditions: Homo sapiens; Lung, NCI-H1975, cell viability, 72 h
Description: as §1, §2, §5, §6, §7, §8, §9, §10

NCI-H1650 = assay: Cancer cell growth inhibition, NCI-H1650; conditions: Homo sapiens; Lung, NCI-H1650, cell viability, 72 h
Description: as §1, §2, §5, §6, §7
as §8, with “PBS. […]” for “PBS.”

NCI-H358 = assay: Cancer cell growth inhibition, NCI-H358; conditions: Homo sapiens; Lung, NCI-H358, cell viability, 72 h
Description: as §1, §2, §5, §6, §7, §8, §9, §10

HT-1080 = assay: Cancer cell growth inhibition, HT-1080; conditions: Homo sapiens; HT-1080, cell viability, 72 h
Description: as §1, §2, §5, §6, §7, §8, §9, §10

Panc-1 = assay: Cancer cell growth inhibition, Panc-1; conditions: Homo sapiens; Pancreatic, Panc-1, cell viability, 72 h
Description: as §1, §2, §5, §6, §7, §8, §9, §10

BxPC3 = assay: Cancer cell growth inhibition, BxPC3; conditions: Homo sapiens, BXPC-3; Pancreatic, BxPC3, cell viability, 72 h
Description: as §1, §2, §5, §6, §7
as §8, with “PBS. […]” for “PBS.”

RWPI = assay: Cancer cell growth inhibition, RWPI; conditions: Pancreatic, cell viability, 72 h
Description: as §1, §2, §3, §4

SK-MEL-28 = assay: Cancer cell growth inhibition, SK-MEL-28; conditions: Homo sapiens; Melanoma, SK-MEL-28, cell viability, 72 h
Description: as §1, §2, §5, §6, §7
as §8, with “PBS. […]” for “PBS.”

RCC-7860 = assay: Cancer cell growth inhibition, RCC-7860; conditions: Renal, RCC-7860, cell viability, 72 h
Description: as §1, §2, §3, §4

U-373MG = assay: Cancer cell growth inhibition, U-373MG; conditions: Homo sapiens, U373 MG, Brain, cell viability, 72 h
Description: as §1, §2, §5, §6, §7
as §8, with “PBS. […]” for “PBS.”

SK-OV-3 = assay: Cancer cell growth inhibition, SK-OV-3; conditions: Homo sapiens; Ovarian, SK-OV-3, cell viability, 72 h
Description: as §1, §2, §5, §6, §7
as §8, with “PBS. […]” for “PBS.”

HeLa = assay: Cancer cell growth inhibition, HeLa; conditions: Homo sapiens, Cervical, cell viability, 72 h
Description: as §1, §2, §5, §6, §7
as §8, with “PBS. […]” for “PBS.”

K562 = assay: Cancer cell growth inhibition, K562; conditions: Homo sapiens; Hematologic, K562, cell viability, 72 h
Description: as §1, §2, §5, §6, §7
as §8, with “PBS. […]” for “PBS.”

LS174T = assay: Cancer cell growth inhibition, LS174T; conditions: Homo sapiens, Colorectal, cell viability, 72 h
Description: as §1, §2, §3, §4

| EC50 (T47D) [µM] | EC50 (DU-145) [µM] | EC50 (HCT-116) [µM] | EC50 (HT-29) [µM] | EC50 (NCI-H1650) [µM] | EC50 (NCI-H358) [µM] | EC50 (HT-1080) [µM] | EC50 (BxPC3) [µM] | EC50 (RWPI) [µM] | EC50 (SK-MEL-28) [µM] | EC50 (SK-OV-3) [µM] | EC50 (HeLa) [µM] | EC50 (K562) [µM] | Compound | other results |
| --- | --- | --- | --- | --- | --- | --- | --- | --- | --- | --- | --- | --- | --- | --- |
| 11 | 16 | 5.7 | 11 | 11 | 7.3 | 9.7 | 15 | 25 | 4.8 | 4.1 | 6.9 | 13 | COc1cc(OC)c2c(-c3ccc(O)cc3)cn(CC(=O)c3ccc(O)cc3)c2c1 [Example 6, 1-(4-hydroxyphenyl)-2-[3-(4-hydroxyphenyl)-4,6-dimethoxy-1H-indol-1-yl]ethanone] | EC50 (BT474): 50 µM; EC50 (MDA-MB-231): 13 µM; EC50 (SW-480): 94 µM; EC50 (NCI-H1975): 9.2 µM; EC50 (Panc-1): 15 µM; EC50 (RCC-7860): 12 µM; EC50 (U-373MG): 8.1 µM |
| 31 | 65 | 37 | 66 | 76 | 23 | 52 | 34 | 46 | 59 | 44 | 68 | 51 | O=C(Cn1cc(-c2ccc(O)cc2)c2c(F)cc(F)cc21)c1ccc(O)cc1 [Example 16, 2-[4,6-difluoro-3-(4-hydroxyphenyl)-1H-indol-1-yl]-1-(4-hydroxyphenyl) ethanone] | EC50 (LS174T): 88 µM |
